Source: patent US10016383B2, “Inhibitors of metallo-β-lactamase-enzymes” (McMaster University, priority 2013, dated 2018)
“Also recorded” adds a separate entry of the source.

Columns and labels:
VIM-2 = biological target: T1, VIM-2 (Escherichia coli, UniProt Q5U7L7); assay: Incubation of AM-A with metalloenzymes in Zn2+-depleted buffer; type: biochemical; settings: extended incubation, AM-A 0.5 mM
T1 construct: All β-lactamase overexpression constructs were generated without the leader peptide in a pET-28b plasmid containing a N-terminal His Tag; His tag (N); made in house; host or cells: E. coli BL21(DE3)
Protocol: Enzyme (500 nM) was incubated with AM-A (500 μM) for 10 minutes. 20 μL of the above was diluted with 180 μL nitrocefin or FAPGG substrate for the following final concentrations: Enzyme (50 nM), FAPGG (50 μM)/nitrocefin (20 μM), AM-A (50 μM). Buffer (50 mM HEPES pH 7.5, 300 mM NaCl) was stirred overnight with 2 g/100 mL Chelex-100 (Biorad; Richmond, Calif.). Assays were read in 96-well microplate format at 490 nm using a Spectramax reader (Molecular Devices) at 37° C.

NDM-1 [1] = biological target: T2, NDM-1 (Klebsiella pneumoniae, UniProt C7C422); assay: IC50 enzyme inhibition assay, nitrocefin reporter substrate; type: biochemical; set-up: All β-lactamase overexpression constructs were generated without the leader peptide in a pET-28b plasmid containing a N-terminal His Tag; His tag (N, cleaved yes); SUMO (implied by the use of SUMO protease) (N, cleaved yes); made in house; host or cells: E. coli BL21(DE3)
T2 sequence (C7C422 29-270 limits assumed): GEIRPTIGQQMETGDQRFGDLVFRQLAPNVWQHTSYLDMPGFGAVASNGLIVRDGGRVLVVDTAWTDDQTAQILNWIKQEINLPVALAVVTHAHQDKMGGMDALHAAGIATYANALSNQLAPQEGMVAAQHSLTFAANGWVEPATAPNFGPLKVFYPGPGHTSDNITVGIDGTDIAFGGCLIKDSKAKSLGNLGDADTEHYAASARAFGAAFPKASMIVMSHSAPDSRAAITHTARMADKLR
Protocol: Enzyme (NDM-1, 5 nM; VIM-2, 500 pM; CTX-M-15, 500 pM; KPC-2, 5 nM; OXA-48, 1 nM; TEM-1, 100 pM; ACE, 50 nM) was mixed with 30 μM nitrocefin (100 μM nitrocefin for TEM-1; 250 µM furanacryloyl-L-phenylalanylglycylglycine [FAPGG] for ACE^24) after a 5-10 minute preincubation with AM-A. Metallo-enzymes were supplemented with 10 μM ZnSO4. Assays were read in 96-well microplate format at 490 nm using a Spectramax reader (Molecular Devices) at 30-37° C.
E. coli strain BW25113 was modified by deletion of the bamB and tolC genes so as to increase permeability to and reduce efflux of small molecules. This strain was then further modified by the single-copy chromosomal insertion of the blaNDM-1 gene under control of the pLac promoter. Microbial natural product extracts were screened against this strain in the presence of sublethal ¼ MIC meropenem. AM-A was purified from a hit extract and its structure elucidated by NMR, mass spectrometry and polarimetry. IC50 values for AM-A were determined using nitrocefin (for MBLs and Ser BLs) and furanacryloyl-L-phenylalanylglycylglycine (for ACE)^21 as reporter substrates against the following purified enzymes: MBLs IMP-7, VIM-2, and NDM-1; SBLs CTX-M-15, KPC-2, OXA-48, and TEM-1; as well as ACE from rabbit lung. […] FIC values were determined using standard methods^27. […]

[2] = in vivo; cited from earlier work
NDM-1 [3] = biological target: T2, NDM-1; assay: Zn2+ restoration assay; type: biochemical; set-up: All β-lactamase overexpression constructs were generated without the leader peptide in a pET-28b plasmid containing a N-terminal His Tag; His tag (N, cleaved yes); SUMO (implied by the use of SUMO protease) (N, cleaved yes); made in house; host or cells: E. coli BL21(DE3); settings: post-inactivation by AM-A
Protocol: NDM-1 (5 nM) supplemented with […] ZnSO4 was incubated with 20 μM AM-A for 15 minutes at 30° C. Nitrocefin (30 μM) and ZnSO4 from 500 nM-40 μM were added to a final volume of 100 μL and absorbance at 490 nm was monitored using a Spectramax reader (Molecular Devices) for 30 minutes at 30° C. Percent residual activity was calculated from no AM-A control. Slightly negative percent residual activity was reported as 0.

NDM-1 [4] = biological target: T2, NDM-1; assay: Reversibility assay (PD-10 column removal of AM-A); type: biochemical; set-up: All β-lactamase overexpression constructs were generated without the leader peptide in a pET-28b plasmid containing a N-terminal His Tag; His tag (N, cleaved yes); SUMO (implied by the use of SUMO protease) (N, cleaved yes); made in house; host or cells: E. coli BL21(DE3); settings: after removal of AM-A by gel filtration (PD10 column)
Protocol: 5 mL NDM-1 (500 nM) was incubated either with AM-A (100 μM), or without, on ice for 1 hour. The no enzyme control was buffer alone (Chelex-treated 50 mM HEPES pH 7.5). 2.5 mL was passed through a PD-10 spin column (GE healthcare) following column equilibration with buffer and centrifuged at 2,000×g for 2 minutes. Pre-PD-10 (+AM-A, −AM-A, −NDM-1), Post-PD-10 ((+AM-A, −AM-A, −NDM-1), and nitrocefin were equilibrated to 30° C. 20 μL of the enzyme solution was added to 180 μL nitrocefin for final enzyme concentration of 50 nM, and nitrocefin of 100 μM and AM-A of 10 μM. Assays were read in 96-well microplate format at 490 nm using a Spectramax reader (Molecular Devices) for 1 hr at 30° C.

Question: Which “inactivation of VIM-2” value (VIM-2) does the source give for N[C@H](CN[C@H](CN[C@@H](CC(=O)O)C(=O)O)C(=O)O)C(=O)O [AM-A, aspergillomarasmine A] here?
Answer: Its value is “complete inactivation”.

Question: What about the “in vitro inhibition of NDM-1” value (NDM-1 [1]) of the same compound?
Answer: Its value is “potent in vitro dose-dependent inhibition”.

Question: And the “effect on mean atrial blood pressure” value [2]?
Answer: Its value is “no effect”.

Question: And the “NDM-1 activity after addition of excess ZnSO4” value (NDM-1 [3])?
Answer: The value was “enzymatic activity could be restored; also recorded: restores activity”.

Question: What about the “reversibility of NDM-1 inhibition” value (NDM-1 [4]) of the same compound?
Answer: Its value is “irreversible inactivation”.
